One assay relates to eIF2α. Kind of assay: Thermophoresis affinity measurement, binding to labelled P-eIF2α. Also on record: species or system human. The protocol:
Thermophoresis experiments were performed using a Monolith NT.115 instrument (NanoTemper Technologies). PP1c and P-eIF2α proteins were labeled using the Monolith NT Protein labelling Kit Red-NHS and stored for no longer than a month at −80° C. For thermophoresis, all protein dilutions were carried out in MST buffer (50 mM HEPES (pH 7.4), 100 mM NaCl, 0.1% Tween20, 2 mM MnCl2). Labelled proteins (100 nM) were mixed with equal volumes of serial dilutions of the unlabelled binding partner. In holophosphatase binding experiments, labelled P-eIF2 was diluted to 100 nM in MST buffer containing 10 μM regulatory subunit and then mixed as above with titrations of unlabelled PP1c. All experiments were carried out in enhanced grade capillaries, using 100% LED power and 100% IR-laser (on for 25 seconds (″)) at 20° C. NanoTemper Analysis 1.2.101 software was used to fit the data with a nonlinear solution of the law of mass action and KD values were determined. Each measurement was repeated in three independent experiments and KD values were averaged. Standard error of the mean (SEM) values are shown.

In another assay the test system is HeLa cells. The experiment in a line: Cytoprotection of HeLa cells from Tunicamycin (ER) stress. The format is cell-based. The conditions noted are these: 250 ng/ml Tunicamycin, 72 h. The protocol: HeLa cells (40,000 cells/ml) were plated in a 96-well plate and treated with different concentrations of compound, as indicated, or DMSO vehicle in the presence of 250 ng/ml Tunicamycin for 72 h. To monitor cell death, 1/2000 dilution of the CellTox green dye (Promega) was added to the media. The growth of the cells was monitored over time and pictures taken every 2 h with the IncuCyte ZOOM system and analysed by the IncuCyte ZOOM software (Essen BioScience). To compare different compounds and their cytoprotective effect, a growth ratio for each time point was calculated:
Growth ratio=(Phase confluency (%) at X hours)/(Phase confluency (%) at 0 hours)
The end point of the assay (72 h) was chosen for generating the graphs.

In another assay the target is T1, R15B-PP1c (Homo sapiens, UniProt Q5SWA1).
T1 construct: PPP1R15B amino acids 340-698 (R15B); His6 (C); made in house; host or cells: E. coli BL21 pLysS (R15B, eIF2α); E. coli BL21/pGro7 (PP1c)
T1 sequence (P62136 7-330 partner limits assumed, one chain of several): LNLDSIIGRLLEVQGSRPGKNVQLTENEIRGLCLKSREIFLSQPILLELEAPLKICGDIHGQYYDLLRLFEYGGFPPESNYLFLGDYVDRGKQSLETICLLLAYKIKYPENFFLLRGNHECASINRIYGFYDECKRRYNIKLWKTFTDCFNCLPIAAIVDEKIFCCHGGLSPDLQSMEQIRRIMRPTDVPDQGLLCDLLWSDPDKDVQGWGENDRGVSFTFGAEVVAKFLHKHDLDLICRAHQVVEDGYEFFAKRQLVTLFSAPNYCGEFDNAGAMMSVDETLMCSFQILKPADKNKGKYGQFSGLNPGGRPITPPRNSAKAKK
Kind of assay: In vitro dephosphorylation of P-eIF2α by recombinant R15B-PP1c holophosphatase (10 nM PP1c). The format is biochemical. The following applies: PP1c 10 nM, 1 μM P-eIF2α, compounds 100 μM, 30° C., 16 h. The procedure: (§1) PP1c was diluted to the appropriate concentration (as indicated in the figure legends) in dephosphorylation buffer immediately prior to use. Dephosphorylation reactions were carried out by pre-incubating diluted PP1c in the presence or absence of regulatory subunits (either […]), and/or compounds (all at 100 μM, except for Salubrinal which was used at 30 μM), for 15′ at RT. All compounds were diluted in DMSO, and DMSO vehicle was used in all control experiments.
The reaction was initiated by the addition of 1 μM P-eIF2α or ^33P Phosphorylase a substrates and then incubated at 30° C. for 16 h with shaking at 350 rpm. Reactions were stopped by addition of 4× Laemmli sample buffer. eIF2α samples were analyzed by immunoblotting or Phos-tag gels. P-eIF2α dephosphorylation was analysed by immunoblotting using anti-Phospho-eIF2α (SerS1) (#9721) (Cell Signaling) and anti-eIF2α (ab26197) (AbCam) antibodies. Samples in FIG. 8 and FIG. 16 were run on a 15% SuperSep Phos-tag acrylamide gel (Alpha Laboratories) and visualized by staining with InstantBlue Protein Stain.

In assay [1] the target is T2, R15A (Homo sapiens, UniProt O75807).
T2 construct: PPP1R15A amino acids 325-636 (R15A); His6 (C); made in house; host or cells: E. coli BL21 pLysS
T2 sequence (O75807 325-636, stated change not applied): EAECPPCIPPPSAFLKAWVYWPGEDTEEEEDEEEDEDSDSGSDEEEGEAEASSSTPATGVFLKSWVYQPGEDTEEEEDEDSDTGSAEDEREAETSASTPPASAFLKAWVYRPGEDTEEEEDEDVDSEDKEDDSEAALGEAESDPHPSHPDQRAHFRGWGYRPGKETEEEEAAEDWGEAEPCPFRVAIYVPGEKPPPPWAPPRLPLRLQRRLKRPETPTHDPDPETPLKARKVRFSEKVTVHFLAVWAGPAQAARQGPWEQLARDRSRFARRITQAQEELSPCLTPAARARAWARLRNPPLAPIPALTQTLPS
The experiment in a line: Light scattering to monitor aggregation of R15A. The following applies: 5 μM R15A, 10 min, 20° C. The protocol:
Samples were incubated for 10 min at RT. […] Therefore, light scattering was measured at 380 nm emission, 380 nm absorption to monitor the presence of aggregates. For each sample, 100 data points were collected over a period of 10 min, at 20° C., with constant stirring.

In assay [2] the target is T2, R15A. Kind of assay: Limited trypsin proteolysis of R15A (conformational change). The following applies: 100 μM compound, 0.5 μM R15A, 2.5 nM trypsin, 30 min to 3 h, 22° C. The protocol:
(§2) Reactions were allowed to proceed at 22° C. with shaking at 350 rpm. At time points 30 min, 1 h, 2 h or 3 h, 30 μl of sample was removed from the mix and digestion was stopped by addition of 10 μl of 16% SDS Laemmli sample buffer. Samples were run on 4-12% NuPAGE Bis-Tris gels (Life Technologies). Proteins were visualised by staining with InstantBlue Coomassie Protein Stain (Expedeon) protein stain.
(§3) Purified R15A and R15B were diluted to 3 μM in PBS, and incubated for 15′ at RT with 100 μM Raphin1, or DMSO vehicle. Reactions were initiated by addition of 5 nM of trypsin from bovine pancreas (Sigma), made up in PBS, and allowed to proceed for 5′ at 22° C., with shaking at 350 rpm. Digestion was stopped by addition of 4× Laemmli sample buffer and samples were run on 4-12% NuPAGE Bis-Tris gels (Life Technologies). Proteins were visualised by staining with InstantBlue Protein Stain.

Another assay addresses T3, R15B (Homo sapiens, UniProt Q5SWA1).
T3 construct: PPP1R15B amino acids 340-698 (R15B); His6 (C); made in house; host or cells: E. coli BL21 pLysS
T3 sequence (Q5SWA1 340-698): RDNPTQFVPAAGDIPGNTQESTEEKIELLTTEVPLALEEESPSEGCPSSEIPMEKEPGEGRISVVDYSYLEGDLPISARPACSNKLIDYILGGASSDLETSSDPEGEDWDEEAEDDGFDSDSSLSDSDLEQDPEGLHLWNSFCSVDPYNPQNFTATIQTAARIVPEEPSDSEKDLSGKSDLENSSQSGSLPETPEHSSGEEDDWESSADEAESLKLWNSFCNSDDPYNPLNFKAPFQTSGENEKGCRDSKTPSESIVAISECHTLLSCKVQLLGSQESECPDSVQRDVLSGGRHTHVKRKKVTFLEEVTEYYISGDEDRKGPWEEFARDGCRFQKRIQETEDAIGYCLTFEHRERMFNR
The experiment in a line: Limited trypsin proteolysis of R15B (conformational change). The following applies: 100 μM compound, 0.5 μM R15B, 2.5 nM trypsin, 30 min to 3 h, 22° C. The procedure: as §2, §3

For a further assay, the target named is T4, R15A-PP1c (Homo sapiens, UniProt O75807).
T4 construct: PPP1R15A amino acids 325-636 (R15A); His6 (C); made in house; host or cells: E. coli BL21 pLysS (R15A, eIF2α); E. coli BL21/pGro7 (PP1c)
T4 sequence (O75807 325-636, stated change not applied): as the sequence (O75807 325-636, stated change not applied) above
T4 sequence (P62136 7-330 partner): as the sequence (P62136 7-330 partner limits assumed, one chain of several) above
The experiment in a line: In vitro dephosphorylation of P-eIF2α by recombinant R15A-PP1c holophosphatase (10 nM PP1c). The format is biochemical. The following applies: PP1c 10 nM, 1 μM P-eIF2α, compounds 100 μM, 30° C., 16 h. The protocol: as §1
(§4) The reaction was initiated by the addition of 1 μM P-eIF2α or ^33P Phosphorylase a substrates and then incubated at 30° C. for 16 h with shaking at 350 rpm. Reactions were stopped by addition of 4× Laemmli sample buffer. eIF2α samples were analyzed by immunoblotting or Phos-tag gels. […] Samples in FIG. 8 and FIG. 16 were run on a 15% SuperSep Phos-tag acrylamide gel (Alpha Laboratories) and visualized by staining with InstantBlue Protein Stain.

The next assay deals with T5, PP1c (Homo sapiens, UniProt P62136).
T5 construct: The cDNA encoding amino acids 7-330 of human PP1cα; made in house; host or cells: E. coli BL21/pGro7 (PP1c); E. coli BL21 pLysS (eIF2α)
T5 sequence (P62136 7-330): as the sequence (P62136 7-330 partner limits assumed, one chain of several) above
The experiment in a line: Dephosphorylation of P-eIF2α by increasing amounts of PP1c alone. The format is biochemical. The conditions noted are these: compound 100 μM, 30° C., 16 h. The protocol:
as §1, §4

The values below come from patent US20200199647A1, “ASSAY FOR SCREENING MODULATORS OF HOLOPHOSPHATASE ACTIVITY” (UNITED KINGDOM RESEARCH AND INNOVATION, priority 2017, published 2020).

Turning to “R15B-PP1c^D95A: holophosphatase complex of R15B (PPP1R15B 340-698) with PP1c^D95A”, the “affinity for eIF2α relative to isolated PP1c^D95A” value with eIF2α (10 μM regulatory subunit) is 3.0 times higher.

Consider `N=C(N)N/N=C/c1ncccc1Cl` [C3, (E)-2-((3-chloropyridin-2-yl)methylene)hydrazine-1-carboximidamide], for which, in the assay on HeLa cells, the “cytoprotection from ER stress” value was “inactive”. Moreover, the “inhibition of R15B-PP1c eIF2α holophosphatase” value on R15B-PP1c is “did not inhibit R15A-PP1 or R15B-PP1”. Besides, the “aggregation of R15A (light scattering at 380 nm)” value on R15A [1] (1 mM compound) is given as “No aggregation”. On R15A [2], the “sensitivity of R15A to trypsin proteolysis” value is recorded as “did not alter the protease sensitivity”. Moreover, the “sensitivity of R15B to trypsin proteolysis” value on R15B is “did not alter the protease sensitivity”. Moreover, the “inhibition of R15A-PP1c eIF2α holophosphatase” value at R15A-PP1c is on record as “did not inhibit R15A-PP1 or R15B-PP1”.

With `O=C(/C=C/c1ccccc1)NC(NC(=S)Nc1cccc2cccnc12)C(Cl)(Cl)Cl` (stereo not shown) [Salubrinal], the “aggregation of R15A (light scattering at 380 nm)” value on R15A [1] (50 μM compound) was “induced robust aggregation”. In addition, the “inhibition of PP1c alone” value against PP1c is given as “inhibited PP1c”.

For the compound “PP1c^D95A: catalytically inactive D95A mutant of human PP1cα (amino acids 7-330)”, at eIF2α (20° C.), the Kd – broadly, the constant that tells how readily two partners part at equilibrium – is approximately 650 nM.
